Values quoted from earlier work as cited in US9856441B2, “Soap bar” (COLGATE-PALMOLIVE COMPANY, priority 2013, dated 2018).

maximum solubility of taurine in water (room temperature): about 6 weight %
solubility of taurine itself (taurine not in salt form): up to 6%
SMILES: NCCS(=O)(=O)O [taurine, 2-aminoethanesulfonic acid]
